In PubChem BioAssay (NCI):
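These data come from cells grown in 96-well plates and exposed to compound for 48 hours at five concentrations. At the GI50, growth is halved. TGI is the concentration that stops growth completely.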

Tests used:
Test in all cases: DTP human tumour cell line panel, 48 h
MDA-MB-231 breast = test system: MDA-MB-231 breast
K-562 leukemia = test system: K-562 leukemia
UACC-257 melanoma = test system: UACC-257 melanoma
COLO 205 colon = test system: COLO 205 colon
HOP-62 NSCLC = test system: HOP-62 NSCLC
HOP-92 NSCLC = test system: HOP-92 NSCLC
EKVX NSCLC = test system: EKVX NSCLC
MDA-MB-435 = test system: MDA-MB-435
UACC-62 melanoma = test system: UACC-62 melanoma
SK-MEL-28 melanoma = test system: SK-MEL-28 melanoma

| SMILES | TGI (MDA-MB-231 breast) [µM] | TGI (K-562 leukemia) [µM] | TGI (UACC-257 melanoma) [µM] | TGI (COLO 205 colon) [µM] | TGI (HOP-62 NSCLC) [µM] | TGI (HOP-92 NSCLC) [µM] | TGI (EKVX NSCLC) [µM] | TGI (MDA-MB-435) [µM] | TGI (UACC-62 melanoma) [µM] | TGI (SK-MEL-28 melanoma) [µM] | GI50 (HOP-92 NSCLC) [µM] | GI50 (HOP-62 NSCLC) [µM] | GI50 (MDA-MB-435) [µM] | GI50 (UACC-62 melanoma) [µM] |
| --- | --- | --- | --- | --- | --- | --- | --- | --- | --- | --- | --- | --- | --- | --- |
| C=C1c2c(n(S(=O)(=O)c3ccccc3)c3ccccc23)[C@@]2(C(=O)OC)CC3C=CC2N1C3 | > 100 | > 100 | > 100 | > 100 | > 100 | > 100 | > 100 | > 100 | > 100 | > 100 | – | – | – | – |
| C=CC(=O)N1C/C(=C\c2ccc(OC)cc2)C(=O)/C(=C/c2ccc(OC)cc2)C1 | 7.98 | > 100 | > 31.6 | 9.99 | 11.2 | 27 | 40.7 | 7.76 | 4.37 | 10.8 | – | – | – | – |
| CCOP(=O)(OCC)/C(=C/n1c(=S)[nH]c2ccccc21)C(=O)OC | > 100 | > 100 | > 100 | > 100 | > 100 | > 100 | > 100 | > 100 | > 100 | > 100 | > 100 | – | – | – |
| Cc1ccc(C)n1-c1ccccc1C1C=Cn2c(=O)oc3c(OC(C)C)c(OC(C)C)c(O)c1c32 (stereo unspecified) | 78.8 | > 100 | > 100 | 30.9 | > 100 | > 100 | > 100 | 38.6 | > 100 | > 100 | – | – | – | – |
| N#Cc1c(/C=C/c2ccccc2)c2c([nH]c1=S)CCCCC2 | > 100 | > 100 | > 100 | > 100 | > 100 | > 100 | > 100 | > 100 | – | > 100 | – | – | – | – |
| O=S(=O)(O)c1ccc(O)c(N=Nc2c(O)ccc3ccccc23)c1 | > 100 | > 100 | > 100 | > 100 | > 100 | > 100 | > 100 | > 100 | > 100 | > 100 | – | – | – | – |
| CC(=O)C(CN1C(=O)c2ccccc2C1=O)C(C)=O | > 100 | > 100 | > 100 | > 100 | > 100 | > 100 | > 100 | > 100 | > 100 | > 100 | – | – | – | – |
| COc1ccc(C2N(c3ccc(C)c(N=C=O)c3)C(=O)N3C(c4ccc(OC)cc4)N(c4ccc(C)c(N=C=O)c4)C(=O)N23)cc1 (stereo unspecified) | > 100 | > 100 | > 100 | > 100 | > 100 | > 100 | > 100 | > 100 | – | > 100 | – | – | – | – |
| O=C1C(c2ccccc2)=C(c2ccccc2)C1(Cl)Cl | 7.84 | 4.13 | 9.36 | 6.4 | 41.9 | 7.14 | 21.7 | 6.7 | 4.13 | 10.9 | – | – | – | – |
| CCCCCCCCCCCC(=O)N(CCCCCCCCC)CC(O)C(O)C(OC1OC(CO)C(O)C(O)C1O)C(O)CO (stereo unspecified) | 43.2 | 50.2 | 31.4 | 36.9 | 38.9 | 34.4 | 31.5 | 32 | 34.1 | 35.2 | – | – | – | – |
| O=C(CCCCCNC(=O)c1ccc(Cl)cc1)NO | 21 | > 100 | 14.5 | 10.5 | – | 11.1 | > 100 | 31.3 | 12.1 | > 100 | – | – | – | – |
| COc1cc2nc(-c3cccs3)nc(Nc3ccccc3C(=O)NN)c2cc1OC | > 100 | > 100 | > 100 | > 100 | > 100 | > 100 | > 100 | > 100 | > 100 | > 100 | – | – | – | – |
| COc1cc2c3c(n(C)c(=O)c2cc1OC)-c1cc2c(cc1/C3=C\CCCCl)OCO2 | > 100 | > 100 | > 100 | > 100 | 62.8 | > 100 | > 100 | > 100 | > 100 | > 100 | – | 17.5 | > 100 | 33.3 |
| NC1(c2cc3ccccc3s2)CCCCCC1 | 29.1 | 28.1 | 30.1 | 26.5 | 27.7 | 30.5 | 33.2 | 29.7 | 31.9 | 30.9 | – | – | – | – |
| NS(=O)(=O)c1ccc(-c2ccc([As](=O)(O)O)cc2)cc1 | > 100 | > 100 | > 100 | > 100 | > 100 | > 100 | > 100 | > 100 | > 100 | > 100 | – | – | – | – |
| COCC(C#N)NC1CC(OC2CC(O)(C(=O)CO)Cc3c(O)c4c(c(O)c32)C(=O)c2c(OC)cccc2C4=O)OC(C)C1O (stereo unspecified) | 0.729 | 1.11 | 0.368 | 0.471 | 0.261 | 5 | 4.62 | 0.346 | 0.21 | 0.527 | – | – | – | – |
